Source: patent publication US8889671B2, “Compounds and methods for treating bacterial infections” (AstraZeneca AB, priority 2013, dated 2014)
Values after ≈ are worked out from the molar mass of the structure shown. Read-outs that look alike come from different tables or passages of the source.

Key:
[1] = Plasma pharmacokinetics in S. aureus infected mice; format: in vivo, mouse; settings: intraperitoneal, mice with ABT
Method: Groups of satellite mice infected with S. aureus were used for determining plasma concentrations. Dosing started 2 hours after infection and whole blood samples were taken at time points 0.5, 1, 2, 4, 6, 8, 12 and 24 h by submandibular bleed or by cardiac puncture following carbon dioxide asphyxiation and cervical dislocation. Whole blood was sampled into microcontainer tubes containing ethylenediamine tetraacetic acid (EDTA) (Beckton Dickenson). Three mice per time point were used. Plasma was separated by centrifugation for five minutes at 13200 rpm and stored at −20° C. until bioanalysis.
Biological samples containing Example 5 were extracted using protein precipitation. To one volume of sample, 5 volumes of acetonitrile containing the internal standard (Glyburide) were added. […] A Sciex API 4000, controlled by Analyst v1.4.2, was used for the acquisition of the data and the quantification of Example 5.
The plasma profile for each dose group was obtained by calculating the average plasma concentration of compound in each of the three animals per time point. The area under the plasma concentration time curve from zero to infinity (AUC); maximum plasma drug concentration (Cmax); time to reach maximum concentration (tmax); and plasma half-life (t1/2) for each dose group was determined by non-compartmental analysis (WinNonLin 5.2, Pharsight). […]

Enterobacter cloacae = experiment: In vitro antibacterial activity of Example 5 (MIC); format: cell-based

SMILES: C[C@@H]1CN2c3c(cc4c(N5C(=O)OC[C@@H]5C)noc4c3F)CC3(C(=O)NC(=O)NC3=O)[C@H]2[C@H](C)O1 [Example 5, (2R,4S,4aS)-11-Fluoro-2,4-dimethyl-8-[(4S)-4-methyl-2-oxo-1,3-oxazolidin-3-yl]-1,2,4,4a-tetrahydro-2′H,6H-spiro[1,4-oxazino[4,3-a][1,2]oxazolo[4,5-g]quinoline-5,5′-pyrimidine]-2′,4′,6′(1′H,3′H)-trione]
- pharmacokinetics over the dosing range [1]: nonlinear pharmacokinetics
- time of maximum concentration post-administration [1]: 0.5 h
- MIC (Enterobacter cloacae; Enterobacter cloacae (Chromosomal AmpC)): 32 mg/L (≈ 65.6 µM)
- MIC (Enterobacter cloacae; Enterobacter cloacae, read-out: MIC): 32 mg/L (≈ 65.6 µM)
